Reference: patent publication US9012466B2, “Substituted tricyclic pyrazolo-pyrimidine compounds” (ArQule, Inc., priority 2013, dated 2015)

Key:
[1] = molecular target: T1, Full-length BTKC481S (Homo sapiens, UniProt Q06187, C481S); test: BTKC481S Kinase Activity Assay; format: biochemical; settings: AlphaScreen, 60 μM ATP; test concentration not given
T1 construct: Full-length BTKC481S was diluted in assay buffer
Description: BTKC481S Kinase Activity Assay
Test inhibitors and controls (Staurosporine) were prepared in 10% DMSO at 10-fold the desired final concentration, and added to each well of a reaction plate (Corning 96-well half-area solid white nonbinding surface plate) in a volume of 2.5 μl. Full-length BTKC481S was diluted in assay buffer (50 mM Tris, pH 8.0, 0.02 mg/ml BSA, 10 mM MgCl2, 1 mM EGTA, 10% glycerol, 1 mM DTT, 1 mM β-glycerophosphate, and 1 mM NaF) and added to each well in a volume of 17.5 μl for a final concentration in the 25 μl reaction of 10 nM. After a 30 minute pre-incubation at room temperature, the kinase reaction was initiated by the addition of 5 μl of an activation mixture diluted in assay buffer containing biotinylated PLCγ2 peptide, and ATP for final concentrations of 125 nM biotinylated PLCγ2, and 60 μM ATP. The plates were incubated for 60 minutes at room temperature. The reactions were stopped in the dark by the addition of 10 μl stop/detection mixture prepared in assay buffer containing EDTA, Staurosporine and AlphaScreen™ Streptavidin Donor and anti-pTYR100 Acceptor beads. The final concentrations were 15 mM EDTA, 1 μM Staurosporine and 500 ng/well of both AlphaScreen™ (Amplified Luminescent Proximity Homogeneous Assay) technology donor and acceptor beads. Assay plates were incubated for 60 minutes at room temperature in the dark, and the plates were read on a Perkin Elmer Envision Multilabel plate reader (excitation wavelength: […], emission wavelength: 570 nm).

[2] = molecular target: Full-length inactive BTK (Homo sapiens, UniProt Q06187); test: BTK Kinase Activity Assay; format: biochemical; settings: AlphaScreen, 25 μM ATP, 30 minute pre-incubation
Description: BTK Kinase Activity Assay
After a 30 minute pre-incubation at room temperature, the kinase reaction was initiated by the addition of 5 μl of an activation mixture diluted in assay buffer containing biotinylated PLCγ2 peptide, DOPS/DOPC, PtdIns(3,4,5)P3, and ATP for final concentrations of 100 nM biotinylated PLCγ2, 5.5 μM DOPS, 5.5 μM DOPC, 0.5 μM PtdIns(3,4,5)P3, and 25 μM ATP. The plates were incubated for 60 minutes at room temperature. The reactions were stopped in the dark by the addition of 10 μl stop/detection mixture prepared in assay buffer containing EDTA and AlphaScreen™ Streptavidin Donor and anti-pTYR100 Acceptor beads. The final concentrations were 10 mM EDTA and 500 ng/well of both AlphaScreen™ (Amplified Luminescent Proximity Homogeneous Assay) technology donor and acceptor beads. Assay plates were incubated for 60 minutes at room temperature in the dark, and the plates were read on a Perkin Elmer Envision Multilabel plate reader (excitation wavelength: […], emission wavelength: 570 nm).

[3] = test system: TMD-8; test: Anti Proliferation Assay (MTS), TMD-8; format: cell-based; settings: Homo sapiens, TMD8, TMD-8 cells, 72 hours treatment
Description: (§1) Cell survival was determined by the MTS assay. Briefly, cells were plated in a 96-well plate at 2,000-10,000 cells per well, cultured for 24 hours in complete growth medium, and then treated with various drugs and drug combinations for 72 hours. MTS/PMS was added and incubated for 4 hour, followed by assessment of cell viability using the microplate reader (absorbance at 490 nm). Data were normalized to untreated controls and analyzed with Microsoft Excel.

[4] = test system: Rec-1; test: Anti Proliferation Assay (MTS), Rec-1; format: cell-based; settings: Homo sapiens, Rec1, Rec-1 cells, 72 hours treatment
Description: as §1

Chain of Full-length inactive BTK (Q06187 whole entry): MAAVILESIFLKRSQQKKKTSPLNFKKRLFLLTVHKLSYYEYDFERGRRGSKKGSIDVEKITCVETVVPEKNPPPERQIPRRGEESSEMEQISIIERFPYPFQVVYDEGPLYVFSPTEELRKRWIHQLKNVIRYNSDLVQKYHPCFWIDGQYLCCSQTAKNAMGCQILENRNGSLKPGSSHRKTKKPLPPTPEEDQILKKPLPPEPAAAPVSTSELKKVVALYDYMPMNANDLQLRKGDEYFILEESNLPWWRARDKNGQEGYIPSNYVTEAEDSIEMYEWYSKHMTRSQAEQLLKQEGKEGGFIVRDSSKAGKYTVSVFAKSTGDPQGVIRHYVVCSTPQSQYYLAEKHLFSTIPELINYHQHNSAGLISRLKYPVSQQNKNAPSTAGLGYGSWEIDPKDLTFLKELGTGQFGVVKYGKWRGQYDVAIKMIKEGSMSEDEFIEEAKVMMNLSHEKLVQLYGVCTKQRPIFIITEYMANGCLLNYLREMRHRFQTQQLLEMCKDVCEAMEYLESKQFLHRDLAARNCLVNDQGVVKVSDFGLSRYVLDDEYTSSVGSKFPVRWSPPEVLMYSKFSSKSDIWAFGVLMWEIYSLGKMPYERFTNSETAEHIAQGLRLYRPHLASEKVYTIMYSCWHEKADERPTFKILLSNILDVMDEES
T1 sequence (Q06187 whole entry C481S): as the sequence (Q06187 whole entry) above, with C481S counted along it

Structure (SMILES)	BTK (C481S) (% inhibition) [1] [%]	IC50 [2] [nM]	IC50 [3] [nM]	IC50 [4] [nM]
O=c1c2c[nH]nc2c2cnc(NCC3COc4ccccc4O3)nc2n1-c1ccccc1 (stereo not shown) [Compound 14, 7-(((2,3-dihydrobenzo[b][1,4]dioxin-2-yl)methyl)amino)-5-phenyl-2H-pyrazolo[3′,′:4,5]pyrido[2,3-d]pyrimidin-4(5H)-one]	92.8	240	4000	4300
Cc1[nH]nc2c1c(=O)n(-c1ccccc1)c1nc(NC[C@H]3COc4ccccc4O3)ncc21 [Compound 210, 7-{[(2S)-2,3-dihydro-1,4-benzodioxin-2-ylmethyl]amino}-3-methyl-5-phenyl-2,5-dihydro-4H-pyrazolo[3′,′:4,5]pyrido[2,3-d]pyrimidin-4-one]	73.3	140	7100	6800
CN(CC1COc2ccccc2O1)c1ncc2c3[nH]nc(N)c3c(=O)n(-c3ccccc3)c2n1 (stereo not shown) [Compound 223, 3-amino-7-[(2,3-dihydro-1,4-benzodioxin-2-ylmethyl)(methyl)amino]-5-phenyl-1,5-dihydro-4H-pyrazolo[3′,4′:4,5]pyrido[2,3-d]pyrimidin-4-one]	98.2	38	11300	6200
CN1CC(CNc2ncc3c4n[nH]cc4c(=O)n(-c4ccccc4F)c3n2)Oc2ccccc21 (stereo not shown) [Compound 229, 5-(2-fluorophenyl)-7-(((4-methyl-3,4-dihydro-2H-benzo[b][1,4]oxazin-2-yl)methyl)amino)-2H-pyrazolo[3′,4′:4,5]pyrido[2,3-d]pyrimidin-4(5H)-one]	99.2	34	1400	2600
CN(C[C@H]1CN(C)c2ccccc2O1)c1ncc2c3[nH]nc(N)c3c(=O)n(-c3ccccc3F)c2n1 [Compound 342, 3-amino-5-(2-fluorophenyl)-7-(methyl{[(2R)-4-methyl-3,4-dihydro-2H-1,4-benzoxazin-2-yl]methyl}amino)-1,5-dihydro-4H-pyrazolo[3′,4′:4,5]pyrido[2,3-d]pyrimidin-4-one]	101	11	700	2600
CN1C[C@H](CNc2ncc3c4n[nH]cc4c(=O)n(-c4ccccc4F)c3n2)Oc2ccccc21 [Compound 343, 5-(2-fluorophenyl)-7-({[(2S)-4-methyl-3,4-dihydro-2H-1,4-benzoxazin-2-yl]methyl}amino)-2,5-dihydro-4H-pyrazolo[3′,4′:4,5]pyrido[2,3-d]pyrimidin-4-one]	100	14	600	1400
CN1C[C@H](CNc2ncc3c4[nH]nc(N)c4c(=O)n(-c4ccccc4)c3n2)Oc2cc(F)ccc21 [Compound 345, 3-amino-7-({[(2S)-7-fluoro-4-methyl-3,4-dihydro-2H-1,4-benzoxazin-2-yl]methyl}amino)-5-phenyl-1,5-dihydro-4H-pyrazolo[3′,4′:4,5]pyrido[2,3-d]pyrimidin-4-one]	36.1	4.6	3200	14700
O=c1c2c[nH]nc2c2cnc(NCC3CNc4ccccc4O3)nc2n1-c1ccccc1F (stereo not shown) [Compound 346, 7-[(3,4-dihydro-2H-1,4-benzoxazin-2-ylmethyl)amino]-5-(2-fluorophenyl)-2,5-dihydro-4H-pyrazolo[3′,4′:4,5]pyrido[2,3-d]pyrimidin-4-one]	85.2	33	9600	32000
O=c1[nH]nc2c3cnc(NCC4COc5ccccc5O4)nc3n(-c3ccccc3)cc1-2 (stereo not shown) [Compound 356, 7-(((2,3-dihydrobenzo[b][1,4]dioxin-2-yl)methyl)amino)-5-phenyl-2H-pyrazolo[3′,′:4,5]pyrido[2,3-d]pyrimidin-3(5H)-one]	53.7	330	23000	18500
Cc1c2c(=O)[nH]nc-2c2cnc(NC[C@H]3COc4ccccc4O3)nc2n1-c1ccccc1 [Compound 359, 7-{[(2S)-2,3-dihydro-1,4-benzodioxin-2-ylmethyl]amino}-4-methyl-5-phenyl-2,5-dihydro-3H-pyrazolo[3′,′:4,5]pyrido[2,3-d]pyrimidin-3-one]	59	33	27000	23700
